{
  "source": "patent US20240133870A1",
  "about": "“COMBINED TREATMENT FOR CANCER” (Yeda Research and Development Co. Ltd., priority 2021, published 2024)",
  "molecules": {"B1": {"name": "EMAPII: endothelial-monocyte activating polypeptide II, C-terminus variant of AIMP1 (protein, UniProt Q12904 147-312, looked up)", "Endothelial …": "SKPIDVSRLDLRIGCIITARKHPDADSLYVEEVDVGEIAPRTVVSGLVNHVPLEQMQNRMVILLCNLKPAKMRGVLSQAMVMCASSPEKIEILAPPNGSVPGDRITFDAFPGEPDKELNPKKKIWEQIQPDLHTNDECVATYKGVPFEVKGKGVCRAQTMSNSGIK", "modifications": "Endothelial monocyte-activating polypeptide 2"}},
  "assay_type_in_all_cases": "cell-based, human",
  "key": {"H1975 xenografts": {"tested_on": "H1975 xenografts", "assay": "EVOC viability", "conditions": "afatinib 3-4 μM", "quoted_text": "Vehicle—DMSO, FGFRi—AZD4547 2-4 μM, INSRi—linsitinib 2 μM, METi—crizotinib 2-4 μM, EGFRi—afatinib 3-4 μM. Each black dot in a given treatment condition represents a different tumor. P-values were calculated by two-sided t-test. ** P<0.01, * P<0.05. Error bars represent standard error. […] Viability percentage is given per treatment combination. Scale bar represents 50 μm. […] Error bars represent standard error. […] EGFRi—gefitinib 1.6 μM, FGFRi—AZD4547 0.2 μM. The percentage of viable cancer cells was morphologically assessed on H&E stained sections by a pathologist as the ratio between viable cancer cell area and total cancer area (viable cancer cells plus necrotic cancer cells). […] Viability score was calculated based on the entire field of view. […]\nImmunohistochemistry of EVOC tissues: To assess response therapy, 4 μm FFPE tissue slices were stained with H&E, or with specific antibodies: anti-pERK (Cell Signaling, #4370) followed by HRP conjugated secondary antibody (anti-Rabbit HRP, ZUC032, ZytoChem) and DAB staining (DAB substrate kit, DAB057, ZytoChem). […] All slides were scanned using the Pannoramic SCAN II (3[sequence]) and analyzed by a pathologist. The percentage of viable cancer cells was morphologically assessed on H&E stained sections by a pathologist as the ratio between viable cancer cell area and total cancer area (viable cancer cells plus necrotic cancer cells)."}, "[1]": {"tested_on": "HT-29 orthotopic xenograft colorectal tumors", "assay": "EVOC of orthotopic colon tumors, pERK and H&E/BrDu", "conditions": "lapatinib 4 μM combined with BRAFi (vemurafenib 4 μM)", "description": "500-700 μmm^3 tumors were resected, sliced, and cultured ex-vivo. Following 4 days of drug treatment, slices were fixed and embedded in paraffin blocks. FFPE slices were stained by H&E, and the percentage of viable cancer cells was morphologically assessed on H&E stained sections by a pathologist as the ratio between viable cancer cell area and total cancer area (viable cancer cells plus necrotic cancer cells). […] Each black dot in a given treatment condition represents a different tumor. P-values were calculated by two-sided t-test. *** P<0.001 ** P<0.01. Error bars represent standard error. […] Names of the six secreted factors with the highest rScore are shown. Factors related to TNF pathways are marked in gray. Results represent the average of at least two experiments. […] Cohort size pre-treatment: 5-6, P-values of the difference on the last day of experiment were calculated by one-sided Mann-Whitney test. * P<0.05. […] Viability percentage was calculated based on the entire field of view per treatment combination. […] FFPE slices were stained by pERK and pERK activity was assessed by a pathologist. […]\nFor the ex-vivo experiments EVOCs from immunocompromised mice bearing human tumors were generated, as further described hereinbelow. For the in-vivo validation experiments, mice bearing subcutaneous tumors were used; and response was measured by evaluating tumor volume. […]"}, "[2]": {"tested_on": "BRAF (V600E) melanoma cell lines", "assay": "High-throughput secretome screen of GFP-labeled cells (rScore, bScore, ranks)", "conditions": "G361 and SK-MEL-5; PLX4720 2 μM, PD184352 1 μM, EMAPII 50 ng/ml", "protocol": "Cell lines—All cell lines (Table 1 hereinbelow) were cultured in DMEM supplemented with 100 units/ml Penicillin and Streptomycin, 2 μmM Glutamine, 1 μmM Pyruvate and 10% FCS, and maintained in a humidified incubator at 37° C. and 5% CO2. Cells were routinely tested for Mycoplasma contamination by PCR. To generate stable cell lines constitutively expressing GFP, cells were infected with lentivirus bearing plasmid pLEX_TRC206 and sorted by FACS to enrich for GFP positive population. For the in-vitro experiments, human cancer cell lines which constitutively expressed GFP were treated with various cytotoxic and targeted drugs (see Table 1 hereinbelow); and the effect of different secreted factors (Table 2 hereinbelow) on the innate resistance to a drug based on the cells' GFP level was determined.\nHigh throughput in-vitro screens—For high-throughput screens or drug dose curves, cells were counted by Vi-Cell XR (Beckman coulter). Cells were seeded on 384 wells plates (Corning, 3712) using the EL406 washer dispenser (BioTek). Liquid handling of medium and drugs was effected by CyBi (WellFlex vario, CyBio). GFP fluorescence of cells was measured at 477/517 nm (excitation/emission) using Cytation3 (BioTek). Due to fluorescence reading bias at plate margins and corners, these margins were discarded for analysis.\nHigh-throughput secretome screens—To screen for the effect of secreted factors on the response of cell lines to different drugs, the following seven-days procedure was performed. On day 0, GFP expressing cells were seeded at 1500-2000 cells per well on 384-wells plates (Corning, 3712), depending on the cell line's proliferation rate. Each plate was seeded with one cell line. At day 1, each plate was treated with the secretome library (Table 2 hereinabove), one well per factor. Immediately afterwards, each plate was treated either with a drug (Table 1 hereinabove) at the EC90 concentration or with DMSO control. The CyBi liquid handler was used to treat each plate with a drug and the secretome library as well as to replace the medium, drug and secreted factors following 3 days of incubation (day 4). Cell fluorescence was read at days 1, 4 and 7 by Cytation3, and for some of the experiments at day 6 as well. Wells of interest were imaged at day 7 using the Operetta (PerkinElmer).\n(2) Based on observations, the plate area spanning rows 4-13 and columns 4-21 was hardly affected by plate margins biases. This area is referred to herein as plate core. To control for row specific and column specific biases, plate outliers (Zscore>4 or Zscore<−4) and edges were masked. Next, to capture row and column (col) biases for the i-th row and the j-th column, the bias factor was calculated:\nUpon QC completion, 199 experiment plates and 79 control (DMSO) plates were left for further analysis. • 4—Scoring methods-A GFP value for wells without secretome factors was obtained by averaging over the plate internal control wells. Those wells contained the solvents used in the secretome library. pScore: The effect of the secreted factors on proliferation under DMSO was evaluated using pScore (proliferation score). Values were given in percent units.\nrScore: The effect of the secreted factors on resistance to anti-cancer drugs was evaluated using rScore (rescue score). rScore was assigned to a given factor under two conditions: • 1. drug effect was >30% (residual drug growth<0.7) • 2. proliferation ratio between factor treated and untreated cells in the presence of drug was higher than one:\nrSscore=S−S*residual drug growth\nBased on manual inspection of the rScore distribution across the data, the threshold for a potential effect on drug resistance was set to 0.2 (FIGS. 8A-D).\n(*) Negative values were considered as zero. […] Groups with less than 4 experiments were discarded, finally resulting in 13 groups of experiments (FIG. 1E). […]"}, "pERK in G361 cell line": {"tested_on": "pERK in G361 cell line", "assay": "In-cell western blot of pERK", "conditions": "G361 cells treated with the BRAF inhibitor (vemurafenib 2 μM and trametinib 1 nM)", "protocol": "PLX4720—BRAFi, 2 μM; PD184352—MEKi, 1 μM, EMAPII—50 ng/ml. P-value of the difference between GFP(drug)/GFP(no-treatment) and GFP(drug+EMAPII)/GFP(no-treatment), at day 7, was calculated by two-sided t-test. ** p<0.01, *** p<0.001. Average rScore (+/−SE) was calculated from at least four different experiments. […] A total of 69 experiments are shown. […] The effect of FGF2 (10 ng/ml), EMAPII (10 ng/ml) or AIMP1 (10 ng/ml) on G361 μmelanoma cells treated with vemurafenib (2 μM) was measured with or without the FGFR inhibitor PD17307 (0.5 μM). Data represent an average of 4 to 8 experiments. P-value was calculated by two-sided t-test. *** p<0.001. Error bars represent standard error. […] P-values were calculated by two-sided t-test relative to luciferase. * p<0.05, Q-value=0.1. […] P-value was calculated by two-sided t-test. *** p<0.001.\nIn-cell western blot—To validate that EMAPII mediates its effect on resistance to BRAF inhibition via the FGF receptors (FIG. 2G), the melanoma BRAF mutated cell line G361 was seeded in a 384-wells plate at a concentration of 16,000 cells per well. […] Finally, the plate was scanned with Odyssey (Li-cor) using microplate settings (169 μm, […]), and fluorescence intensity was quantified and normalized to the DRAQ level, and then to no drug control (DMSO)."}},
  "data": [
    {"molecule": "CN(C)C/C=C/C(=O)Nc1cc2c(Nc3ccc(F)c(Cl)c3)ncnc2cc1O[C@H]1CCOC1", "note": "[afatinib]", "values": [
      {"measurement": "decrease of viability of cancer cells, on average", "setting": "H1975 xenografts", "value": 28, "unit": "%"}
    ]},
    {"molecule": "CS(=O)(=O)CCNCc1ccc(-c2ccc3ncnc(Nc4ccc(OCc5cccc(F)c5)c(Cl)c4)c3c2)o1", "note": "[lapatinib]", "values": [
      {"measurement": "downstream pERK signaling", "setting": "[1]", "value": "completely blocked pERK signaling"}
    ]},
    {"molecule": "B1", "values": [
      {"measurement": "effect on sensitivity to BRAF/MEK inhibition", "setting": "[2]", "value": "conferred resistance to BRAF and MEK inhibition"},
      {"measurement": "pERK reactivation", "setting": "pERK in G361 cell line", "value": "partially reactivate pERK"}
    ]}
  ]
}
